# Reference: patent US9226500B2, “Pesticidal compositions and processes related thereto” (Dow AgroSciences LLC, priority 2012, dated 2016)
# Test system: Beet Armyworm (Spodoptera exigua)
# Assay: Bioassay on Beet Armyworm (BAW), 128-well diet tray assay
# Assay type: in vivo
# Conditions: Table 3, Assays Results Part 1
# Protocol: Certain molecules disclosed in this document were tested against BAW, CEW and CL using procedures described in the following examples. In the reporting of the results, the “BAW & CEW & CL Rating Table” was used (See Table Section).
# Bioassays on BAW (Spodoptera exigua)
# Bioassays on BAW were conducted using a 128-well diet tray assay. One to five second instar BAW larvae were placed in each well (3 mL) of the diet tray that had been previously filled with 1 mL of artificial diet to which 50 μg/cm^2 of the test compound (dissolved in 50 μL of 90:10 acetone-water mixture) had been applied (to each of eight wells) and then allowed to dry. Trays were covered with a clear self-adhesive cover, and held at 25° C., 14:10 light-dark for five to seven days. Percent mortality was recorded for the larvae in each well; activity in the eight wells was then averaged. The results are indicated in the tables entitled “Table 3: Assay Results Part 1” and “Table 4: Assay Results Part 2” (See Table Section).
row,Compound,BAW Rating
1,"CS(=O)(=O)CCC(=O)NCc1ccc(/C=C/C(c2cc(Cl)c(Cl)c(Cl)c2)C(F)(F)F)cc1Cl (stereo not shown) [CC30, (E)-N-(2-Chloro-4-(4,4,4-trifluoro-3-(3,4,5-trichlorophenyl)but-1-en-1-yl)benzyl)-3-(methylsulfonyl)propanamide]",A (50-100)
2,"O=C(NC1CS(=O)(=O)C1)c1ccc(/C=C/C(c2cc(Cl)cc(Cl)c2)C(F)(F)F)cc1F (stereo not shown) [AC83, (E)-4-(3-(3,5-Dichlorophenyl)-4,4,4-trifluorobut-1-en-1-yl)-N-(1,1-dioxidothietan-3-yl)-2-fluorobenzamide]",A (50-100)
3,"O=C(CNC(=O)c1ccc(/C=C\C(c2cc(Cl)c(Cl)c(Cl)c2)C(F)(F)F)cc1Br)NCC(F)(F)F (stereo not shown) [AC95, (Z)-2-Bromo-N-(2-oxo-2-((2,2,2-trifluoroethyl)amino)ethyl)-4-(4,4,4-trifluoro-3-(3,4,5-trichlorophenyl)but-1-en-1-yl)benzamide]",A (50-100)
4,O=C(CC(F)(F)F)NCc1ccc(/C=C/C(c2cc(Cl)c(Cl)c(Cl)c2)C(F)(F)F)cc1C(F)(F)F (stereo not shown) [CC24],A (50-100)
5,N#Cc1cc(/C=C/C(c2cc(Cl)cc(Cl)c2)C(F)(F)F)ccc1-n1cnc(N)n1 (stereo not shown) [DC38],A (50-100)
6,FC(F)(F)C(/C=C/c1ccc(-n2cncn2)cc1)c1ccccc1 (stereo not shown) [DC3],B (More than 0-Less than 50)
7,O=C(NCc1ccc(C(F)(F)F)nc1)c1ccc(/C=C/C(c2cc(Cl)c(Cl)c(Cl)c2)C(F)(F)F)cc1Br (stereo not shown) [AC75],A (50-100)
8,O=C(NCc1ccc(Cl)nc1)c1ccc(/C=C/C(c2cc(Cl)c(Cl)c(Cl)c2)C(F)(F)F)cc1Cl (stereo not shown) [AC28],A (50-100)
9,"CNc1cc(/C=C/C(c2cc(Cl)cc(Cl)c2)C(F)(F)F)ccc1-n1cncn1 (stereo not shown) [DC57, (E)-5-(3-(3,5-Dichlorophenyl)-4,4,4-trifluorobut-1-en-1-yl)-N-methyl-2-(1H-1,2,4-triazol-1-yl)aniline]",A (50-100)
10,O=C(NCc1ccc(/C=C/C(c2cc(Cl)c(Cl)c(Cl)c2)C(F)(F)F)cc1C(F)(F)F)C1CC1 (stereo not shown) [CC22],A (50-100)
11,O=C(NCc1ccc(Cl)nc1)c1ccc(/C=C/C(c2cc(Cl)c(Cl)c(Cl)c2)C(F)(F)F)cc1Br (stereo not shown) [AC31],A (50-100)
12,O=C(NCc1ccc(Cl)nc1)c1ccc(/C=C/C(c2cc(Cl)c(F)c(Cl)c2)C(F)(F)F)cc1Br (stereo not shown) [AC63],A (50-100)
13,FC(F)(F)C(/C=C/c1ccc(CNC(=S)C2CC2)c(Cl)c1)c1cc(Cl)c(Cl)c(Cl)c1 (stereo not shown) [CC20],A (50-100)
14,"O=C(Cn1ncc2cc(/C=C/C(c3cc(Cl)c(F)c(Cl)c3)C(F)(F)F)ccc2c1=O)NCC(F)(F)F (stereo not shown) [BC14, (E)-2-(6-(3-(3,5-Dichloro-4-fluorophenyl)-4,4,4-trifluorobut-1-en-1-yl)-1-oxophthalazin-2(1H)-yl)-N-(2,2,2-trifluoroethyl)acetamide]",A (50-100)
15,"N#Cc1cc(/C=C/C(c2cc(Cl)c(Cl)c(Cl)c2)C(F)(F)F)ccc1-n1cnc(N)n1 (stereo not shown) [DC41, (E)-2-(3-Amino-1H-1,2,4-triazol-1-yl)-5-(4,4,4-trifluoro-3-(3,4,5-trichlorophenyl)but-1-en-1-yl)benzonitrile]",A (50-100)
16,Cc1cc(/C=C/C(c2cc(Cl)cc(Cl)c2)C(F)(F)F)ccc1C(=O)NCC1CCCO1 (stereo not shown) [AC118],A (50-100)
17,"CCNC(=S)NCc1ccc(/C=C/C(c2cc(Cl)c(Cl)c(Cl)c2)C(F)(F)F)cc1Cl (stereo not shown) [CC37, (E)-1-(2-Chloro-4-(4,4,4-trifluoro-3-(3,4,5-trichlorophenyl)but-1-en-1-yl)benzyl)-3-ethylthiourea]",A (50-100)
18,CSCCC(=O)NCc1ccc(/C=C/C(c2cc(Cl)c(Cl)c(Cl)c2)C(F)(F)F)cc1Cl (stereo not shown) [CC19],A (50-100)
19,CONC(=O)CNC(=O)c1ccc(/C=C/C(c2cc(Cl)c(Cl)c(Cl)c2)C(F)(F)F)cc1Br (stereo not shown) [AC110],A (50-100)
20,Cc1cc(/C=C/C(c2cc(Cl)cc(Cl)c2)C(F)(F)F)ccc1C(=O)NCc1ncccn1 (stereo not shown) [AC18],A (50-100)
21,O=C(NC1CCc2cc(/C=C/C(c3cc(Cl)c(Cl)c(Cl)c3)C(F)(F)F)ccc21)C1CC1 (stereo not shown) [BC6],A (50-100)
22,Cc1cc(/C=C/C(c2cc(Cl)cc(Cl)c2)C(F)(F)F)ccc1C(=O)NC1CSC1 (stereo not shown) [AC10],A (50-100)
23,Cc1cc(/C=C/C(c2cc(Cl)cc(Cl)c2)C(F)(F)F)ccc1C(=O)NCC(=O)NC1CC1 (stereo not shown) [AC40],A (50-100)
24,FC(F)(F)C(/C=C/c1ccc(-n2cncn2)c(Br)c1)c1cc(Cl)cc(Cl)c1 (stereo not shown) [DC47],A (50-100)
25,O=C(CC(F)(F)F)NCc1ccc(/C=C/C(c2cc(Cl)c(Cl)c(Cl)c2)C(F)(F)F)cc1F (stereo not shown) [CC27],A (50-100)
26,"O=C(C1CC1)N(Cc1ccccn1)Cc1ccc(/C=C/C(c2cc(Cl)c(Cl)c(Cl)c2)C(F)(F)F)cc1C(F)(F)F (stereo not shown) [CC29, (E)-N-(Pyridin-2-ylmethyl)-N-(4-(4,4,4-trifluoro-3-(3,4,5-trichlorophenyl)but-1-enyl)-2-(trifluoromethyl)benzyl)cyclopropanecarboxamide]",A (50-100)

row,Compound,BAW Rating
1,CCC(=O)NCc1ccc(/C=C/C(c2cc(Cl)cc(Cl)c2)C(F)(F)F)cc1 (stereo not shown) [CC4],A (50-100)
2,FC(F)(F)C(/C=C/c1ccc(-n2cncn2)c(Cl)c1)c1cc(Cl)cc(Cl)c1 (stereo not shown) [DC50],A (50-100)
3,Cc1cc(/C=C/C(c2cc(Cl)c(F)c(Cl)c2)C(F)(F)F)ccc1C(=O)NC1CCOCC1 (stereo not shown) [AC52],A (50-100)
4,"N#Cc1cc(/C=C/C(c2cc(Cl)c(Cl)c(Cl)c2)C(F)(F)F)ccc1-n1cnc([N+](=O)[O-])n1 (stereo not shown) [DC40, (E)-2-(3-Nitro-1H-1,2,4-triazol-1-yl)-5-(4,4,4-trifluoro-3-(3,4,5-trichlorophenyl)but-1-en-1-yl)benzonitrile]",A (50-100)
5,O=C(NCc1ccc(/C=C/C(c2cc(Cl)c(Cl)c(Cl)c2)C(F)(F)F)cc1)C1CC1 (stereo not shown) [CC5],A (50-100)
6,"O=C(NNc1ccc(/C=C/C(c2cc(Cl)c(Cl)c(Cl)c2)C(F)(F)F)cc1)C1CC1 (stereo not shown) [CC50, (E)-N′-(4-(4,4,4-Trifluoro-3-(3,4,5-trichlorophenyl)but-1-en-1-yl)phenyl)cyclopropanecarbohydrazide]",A (50-100)
7,O=C(CC(F)(F)F)NNc1ccc(/C=C/C(c2cc(Cl)c(Cl)c(Cl)c2)C(F)(F)F)cc1 (stereo not shown) [CC51],A (50-100)
8,"O=C(CNC(=O)c1ccc(/C=C/C(c2cc(Cl)c(Cl)c(Cl)c2)C(F)(F)F)cc1Cl)NCC(F)(F)F (stereo not shown) [AC64, (E)-2-Chloro-N-(2-oxo-2-((2,2,2-trifluoroethyl)amino)ethyl)-4-(4,4,4-trifluoro-3-(3,4,5-trichlorophenyl)but-1-en-1-yl)benzamide]",A (50-100)
9,N#CCN1CCC(NC(=O)c2ccc(/C=C/C(c3cc(Cl)c(Cl)c(Cl)c3)C(F)(F)F)cc2Br)CC1 (stereo not shown) [AC107],B (More than 0-Less than 50)
10,"CN(C)C(=O)NCc1ccc(/C=C/C(c2cc(Cl)c(Cl)c(Cl)c2)C(F)(F)F)cc1Cl (stereo not shown) [CC36, (E)-3-(2-Chloro-4-(4,4,4-trifluoro-3-(3,4,5-trichlorophenyl)but-1-en-1-yl)benzyl)-1,1-dimethylurea]",A (50-100)
11,O=C(NCc1ccc(/C=C/C(c2cc(Cl)c(Cl)c(Cl)c2)C(F)(F)F)cc1Cl)C1CC1 (stereo not shown) [CC11],A (50-100)
12,O=C(NCc1ccc(/C=C/C(c2cc(Cl)c(Cl)c(Cl)c2)C(F)(F)F)cc1Cl)N1CCOCC1 (stereo not shown) [CC34],A (50-100)
13,O=C(NCc1ncc(/C=C/C(c2cc(Cl)c(Cl)c(Cl)c2)C(F)(F)F)cc1Cl)C1CC1 (stereo not shown) [CC45],A (50-100)
14,C=CCNC(=O)CNC(=O)c1ccc(/C=C/C(c2cc(Cl)c(Cl)c(Cl)c2)C(F)(F)F)cc1Br (stereo not shown) [AC111],A (50-100)
15,Cc1cc(/C=C/C(c2cc(Cl)cc(Cl)c2)C(F)(F)F)ccc1C(=O)NCc1nc2ccccc2s1 (stereo not shown) [AC42],A (50-100)
16,Cc1cc(/C=C/C(c2cc(Cl)c(Cl)c(Cl)c2)C(F)(F)F)ccc1C(=O)NCC(=O)NCC(F)(F)F (stereo not shown) [AC78],A (50-100)
17,"Cc1cc(/C=C/C(c2cc(Cl)cc(Cl)c2)C(F)(F)F)ccc1C(=S)NCc1ccc(Cl)nc1 (stereo not shown) [AC115, (E)-N-((6-Chloropyridin-3-yl)methyl)-4-(3-(3,5-dichlorophenyl)-4,4,4-trifluorobut-1-en-1-yl)-2-methylbenzothioamide]",A (50-100)
18,O=C(NCc1ccc(/C=C/C(c2cc(Cl)c(F)c(Cl)c2)C(F)(F)F)cc1Cl)C1CC1 (stereo not shown) [CC15],A (50-100)
19,CCNC(=O)NCc1ccc(/C=C/C(c2cc(Cl)c(Cl)c(Cl)c2)C(F)(F)F)cc1Br (stereo not shown) [CC33],A (50-100)
20,"C/C(=C\C(c1cc(Cl)cc(Cl)c1)C(F)(F)F)c1ccc(-n2cncn2)cc1 (stereo not shown) [DC68, (E)-1-(4-(4-(3,5-Dichlorophenyl)-5,5,5-trifluoropent-2-en-2-yl)phenyl)-1H-1,2,4-triazole]",A (50-100)
21,Cc1cc(/C=C/C(c2cc(Cl)cc(Cl)c2)C(F)(F)F)ccc1C(=O)NCc1cnc(Cl)s1 (stereo not shown) [AC15],A (50-100)
22,C=CCNC(=S)NCc1ccc(/C=C/C(c2cc(Cl)c(Cl)c(Cl)c2)C(F)(F)F)cc1Cl (stereo not shown) [CC38],A (50-100)
23,FC(F)(F)c1cc(C(/C=C/c2ccc(-n3cncn3)cc2)C(F)(F)F)cc(C(F)(F)F)c1 (stereo not shown) [DC16],A (50-100)
24,CCNC(=O)NCc1ccc(/C=C/C(c2cc(Cl)c(Cl)c(Cl)c2)C(F)(F)F)cc1C(F)(F)F (stereo not shown) [CC32],A (50-100)
25,O=C(NCc1ccc(/C=C/C(c2cc(Cl)cc(Cl)c2)C(F)(F)F)cc1Cl)C1CC1 (stereo not shown) [CC8],A (50-100)
26,O=C(CC(F)(F)F)NCc1ccc(/C=C/C(c2cc(Cl)c(Cl)c(Cl)c2)C(F)(F)F)cc1 (stereo not shown) [CC6],A (50-100)
